In patent publication US20110206711A1, “METHOD FOR INDUCING CYTOTOXIC T-CELLS, CYTOTOXIC T-CELL INDUCER, AND PHARMACEUTICAL COMPOSITION AND VACCINE EMPLOYING SAME” (priority 2006, published 2011):
“Also recorded” adds a separate entry of the source. Ends that are not written are not given here.

Tests used:
[1] = tested on: HCV genome-expressing RzM6 cells; experiment: Cytolysis assay against HCV genome-expressing cells; assay type: cell-based, human; settings: RzM6 cells vs HepG2 control; E/T ratio 10; 3 hours; FIG. 4
Description: RzM6 cells were formed by transfecting HepG2, which is a human liver cell strain, with an HCV gene that had been modified so as to be able to conditionally induce expression of an HCV1b full genome (AY045702) in the presence of Cre (Activation of the CK1-CDK-Rb-E2F pathway in full genome hepatitis C virus-expressing cells. Tsukiyama-Kohara et al., J. Biol. Chem. 279, 14531-14541, 2004, RzM6 being supplied by Dr. Michinori Obara, Tokyo Metropolitan Institute of Medical Science).
In the HCV expression method, since the same RzM6 cells are doubly transfected with the Cre gene inserted in a conditional expression cassette arranged downstream of a Tamoxifen-inducible promoter, by adding tamoxifen, expression of Cre is induced, and as a result expression of the HCV gene can be induced. The RzM6 cells for which expression of the HCV gene was induced were labeled with ^51Cr by the same method as for the C1R-A24 cells, thus serving as target cells.
The cytotoxic T-cells prepared above and RzM6 target cells or HepG2 cells with no HCV introduced as a control were mixed at an E/T ratio of 10 and allowed to stand at 37° C. for 3 hours, and the radioactivity of ^51Cr released into the culture supernatant was measured.

[2] = target: HLA-A24 molecule (product of the HLA-A*2402 gene) (Homo sapiens, UniProt P04439, D101N/D140Y/D185E/E176V/E190D/F33S/G103R/G107R/I119L/I121M/I306V/K335N/L105A/L180Q/L300P/N151K/N90K/Q86E/Q94H/R106L/R138H/R89G/T104I/T345S/V100E/W191G/Y123F); experiment: Experiment of binding peptide to HLA-A24 molecule (C1R-A24 cells, flow cytometry)
[3] = tested on: peptide-loaded C1R-A24 cells and T2-A24 cells; experiment: Cytotoxic T-cell induction experiment (51Cr release, human PBMCs); assay type: cell-based; settings: peptide 1 μM; blood samples from 8 (or 7) people; E/T ratio 10 to 20; FIG. 2 and FIG. 3
Procedure: The following experiment was carried out using a human blood sample.
Blood was sampled from a hepatitis C patient or a healthy individual from whom informed consent had been obtained in advance.
To blood cells (Peripheral blood mononuclear cells: PBMCs) sown on 96 well plates peptides of SEQ ID NOS: 1 to 14 were added weekly for 5 weeks so as to give final concentrations of 1 μM, and cytotoxic T-cells were activated in media to which was added 10% FCS and 5 ng/mL of IL-2, thus giving T-cell samples.
Cells were labeled with ^51Cr by adding the sodium salt of ^51Cr (sodium chromate) to C1R-A24 cells and T2-A24 cells (human B/T cultured cell strain having no TAP peptide transporter and expressing the HLA-A*2402 gene: supplied by Dr. Tsuboi, Faculty of Medicine, Osaka University) at 37° C. or 26° C. for 1 hour. Peptides of SEQ ID NOS: 1 to 14 were added thereto so as to make final concentrations of 1 μM, thus forming target cells having each peptide binding to the surface of the cells.
After the cytotoxic T-cells and the target cells prepared above were mixed at an E/T ratio (effector to target) of 10 to 20 and allowed to stand at 37° C. for 3.5 hours, the radioactivity of ^51Cr released in the culture supernatant was measured.

Sequence | cytolytic activity specific to HCV-expressing cells by the cytotoxic T-cells [1] | binding in HLA molecule binding experiment [2] | capability of inducing cytotoxic T-cells [3]
ALYGVYPLL [SEQ ID NO: 5] | a cytolytic activity specific to HCV-expressing cells by the cytotoxic T-cells was exhibited | – | –
AYSQQTRGL [SEQ ID NO: 8] | a cytolytic activity specific to HCV-expressing cells by the cytotoxic T-cells was exhibited | – | –
FWAKMMYNF [SEQ ID NO: 14] | – | high binding | did not show a capability of inducing cytotoxic T-cells; also recorded: none of the blood samples showed a capability of inducing cytotoxic T-cells
ILMTHFFSI [SEQ ID NO: 13] | a cytolytic activity specific to HCV-expressing cells by the cytotoxic T-cells was exhibited | – | –
ILPCSFTTL [SEQ ID NO: 4] | a cytolytic activity specific to HCV-expressing cells by the cytotoxic T-cells was exhibited | – | –
ITYSTYCKF [SEQ ID NO: 9] | a cytolytic activity specific to HCV-expressing cells by the cytotoxic T-cells was exhibited | – | –
RYAPACKPL [SEQ ID NO: 10] | a cytolytic activity specific to HCV-expressing cells by the cytotoxic T-cells was exhibited | – | –
SYTWTGALI [SEQ ID NO: 12] | a cytolytic activity specific to HCV-expressing cells by the cytotoxic T-cells was exhibited | – | –
WHYPCTVNF [SEQ ID NO: 2] | a cytolytic activity specific to HCV-expressing cells by the cytotoxic T-cells was exhibited | – | –
